In paper doi:10.1101/2025.03.18.644008v1 (biorxiv, 2025):

Molecular target: T1, LPA3 receptor (Homo sapiens, UniProt Q9UBY5)
T1 sequence (Q9UBY5 1-353): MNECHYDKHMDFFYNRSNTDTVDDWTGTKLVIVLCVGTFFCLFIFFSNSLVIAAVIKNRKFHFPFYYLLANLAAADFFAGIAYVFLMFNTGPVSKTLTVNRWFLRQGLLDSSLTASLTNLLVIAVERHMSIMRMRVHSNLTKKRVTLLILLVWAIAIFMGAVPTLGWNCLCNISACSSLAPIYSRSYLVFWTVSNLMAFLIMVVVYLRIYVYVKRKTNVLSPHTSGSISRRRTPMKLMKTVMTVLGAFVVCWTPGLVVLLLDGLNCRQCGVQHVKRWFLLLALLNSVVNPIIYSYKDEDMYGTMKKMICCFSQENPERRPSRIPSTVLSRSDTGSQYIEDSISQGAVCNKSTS
Test: intracellular calcium, Fura-2 AM, induced HEK […] Flp-In TREx cells
Format: cell-based

Row | Structure (SMILES) | EC50
1 | CCCCCCCC/C=C\CCCCCCCC(=O)OC[C@@H](COP(O)(O)=S)OC [OMPT] | ~0.06 µM
2 | Fc1ccc([C@@H]2CCNC[C@H]2COc2ccc3c(c2)OCO3)cc1 [paroxetine] | ~30 µM
